US20240343704A1, “HALO-SUBSTITUTED AMINO PYRIDINE COMPOUNDS AS INHIBITORS OF THE HAEMATOPOIETIC PROGENITOR KINASE 1 (HPK1)” (priority 2021, published 2024)
Like-named read-outs stand apart in the source and are kept apart here.

Tests used:
Lck (h) = Lck (h) (Homo sapiens, UniProt P06239); experiment: Lck Human  Kinase Enzymatic Radiometric Assay; assay type: biochemical
Procedure, shortened: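 Substrate 33P-incorporation measured by scintillation counting after spotting on P30 filtermat and phosphoric acid washes. Human Lck reacted 40 min at RT in 50 mM Tris pH 7.5 with 10 mM MgAcetate, [gamma-33P]-ATP, 250 uM Cdc2 peptide, 0.1 mM EGTA and 0.1 mM Na3VO4.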

[1] = biological target: T1, Recombinant (1-346) HPK1 (h) (Homo sapiens, UniProt Q92918); experiment: HPK1 Human STE Kinase Enzymatic Radiometric Assay; assay type: biochemical
T1 construct: Recombinant (1-346) HPK1 (h) is incubated with 8 mM MOPS pH 7.0
T1 sequence (Q92918 1-346): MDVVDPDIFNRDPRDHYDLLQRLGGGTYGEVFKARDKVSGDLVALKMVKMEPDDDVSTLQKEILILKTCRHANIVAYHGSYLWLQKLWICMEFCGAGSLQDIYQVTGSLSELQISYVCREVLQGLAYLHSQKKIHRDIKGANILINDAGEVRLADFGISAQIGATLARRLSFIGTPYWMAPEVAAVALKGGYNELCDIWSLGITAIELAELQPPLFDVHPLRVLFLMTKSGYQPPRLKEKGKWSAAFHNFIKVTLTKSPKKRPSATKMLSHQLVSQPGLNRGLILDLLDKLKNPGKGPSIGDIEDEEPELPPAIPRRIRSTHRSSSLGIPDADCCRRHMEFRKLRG
Experimental: A stock solution of 10 mM of test compound is prepared in DMSO. The compound plate was prepared by 3-fold and 9-point serial dilutions. […] The reaction is initiated by The addition of the Mg/ATP mix. After incubation for 40 minutes at RT, the reaction is stopped by the addition of phosphoric acid to a concentration of 0.5%.

Chain of Lck (h) (P06239 whole entry): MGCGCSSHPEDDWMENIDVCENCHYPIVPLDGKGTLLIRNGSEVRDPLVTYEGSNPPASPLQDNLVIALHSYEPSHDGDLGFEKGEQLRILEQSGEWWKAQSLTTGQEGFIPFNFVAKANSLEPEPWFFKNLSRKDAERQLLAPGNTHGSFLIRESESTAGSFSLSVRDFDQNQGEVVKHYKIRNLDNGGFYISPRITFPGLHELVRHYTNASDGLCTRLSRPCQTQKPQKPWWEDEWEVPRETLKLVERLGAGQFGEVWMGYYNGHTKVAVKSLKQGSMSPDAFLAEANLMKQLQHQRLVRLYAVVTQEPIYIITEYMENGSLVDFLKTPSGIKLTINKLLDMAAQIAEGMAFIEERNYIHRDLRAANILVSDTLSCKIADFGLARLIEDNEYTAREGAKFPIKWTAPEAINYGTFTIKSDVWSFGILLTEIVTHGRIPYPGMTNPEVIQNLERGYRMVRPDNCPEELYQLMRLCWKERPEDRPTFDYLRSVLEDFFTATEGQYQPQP

| Compound | IC50 (Lck (h)) [nM] | IC50 [1] [nM] | IC50 (Lck (h); read-out: Lck IC50 nM Range*) [nM] | IC50 ([1]; read-out: HPK1 IC50 nM Range*) [nM] |
| --- | --- | --- | --- | --- |
| CC(=O)N1CCC2(CC1)OCc1cc(-c3cc(-c4ccc5c(c4)CCNC5=O)c(N)nc3F)ccc1O2 [I-191, 6-(5-(1′-acetyl-4H-spiro[benzo[d][1,3]dioxine-2,4′-piperidin]-6-yl)-2-amino-6-fluoropyridin-3-yl)-3,4-dihydroisoquinolin-1(2H)-one] | > 1000 | 0.1 to 10 | – | – |
| CC(=O)N1CCC2(CC1)CC(=O)c1cc(-c3cc(-c4ccc5c(c4)CCNC5=O)c(N)nc3F)ccc1O2 [I-192, 1′-acetyl-6-(6-amino-2-fluoro-5-(1-oxo-1,2,3,4-tetrahydroisoquinolin-6-yl)pyridin-3-yl)spiro[chromane-2,4′-piperidin]-4-one] | – | – | > 1000 | 0.1 to 10 |
| CC(=O)N1CCC2(CCc3cc(-c4cc(-c5ccc6c(c5)CCNC6=O)c(N)nc4F)ccc3O2)CC1 [I-193, 6-(5-(1′-acetylspiro[chromane-2,4′-piperidin]-6-yl)-2-amino-6-fluoropyridin-3-yl)-3,4-dihydroisoquinolin-1(2H)-one] | – | – | > 1000 | 0.1 to 10 |
| CC(=O)N1CCC(Oc2ccc(-c3cc(-c4ccc5c(c4)CCNC5=O)c(N)nc3F)cc2C#N)CC1 [I-194, 2-((1-acetylpiperidin-4-yl)oxy)-5-(6-amino-2-fluoro-5-(1-oxo-1,2,3,4-tetrahydroisoquinolin-6-yl)pyridin-3-yl)benzonitrile] | – | – | > 1000 | 0.1 to 10 |
| Nc1nc(F)c(-c2ccc3c(c2)COC2(CCN(CC(F)(F)F)CC2)O3)cc1-c1ccc2c(c1)CCNC2=O [I-195, 6-(2-amino-6-fluoro-5-(1′-(2,2,2-trifluoroethyl)-4H-spiro[benzo[d][1,3]dioxine-2,4′-piperidin]-6-yl)pyridin-3-yl)-3,4-dihydroisoquinolin-1(2H)-one] | – | – | > 1000 | 11 to 100 |
| Nc1nc(F)c(-c2ccc3c(c2)C(=O)CC2(CCN(CC(F)(F)F)CC2)O3)cc1-c1ccc2c(c1)CCNC2=O [I-196, 6-(6-amino-2-fluoro-5-(1-oxo-1,2,3,4-tetrahydroisoquinolin-6-yl)pyridin-3-yl)-1′-(2,2,2-trifluoroethyl)spiro[chromane-2,4′-piperidin]-4-one] | – | – | > 1000 | 0.1 to 10 |
| Nc1nc(F)c(-c2ccc3c(c2)CCC2(CCN(CC(F)(F)F)CC2)O3)cc1-c1ccc2c(c1)CCNC2=O [I-197, 6-(2-amino-6-fluoro-5-(1′-(2,2,2-trifluoroethyl)spiro[chromane-2,4′-piperidin]-6-yl)pyridin-3-yl)-3,4-dihydroisoquinolin-1(2H)-one] | – | – | > 1000 | 11 to 100 |
| N#Cc1cc(-c2cc(-c3ccc4c(c3)CCNC4=O)c(N)nc2F)ccc1OC1CCN(CC(F)(F)F)CC1 [I-198, 5-(6-amino-2-fluoro-5-(1-oxo-1,2,3,4-tetrahydroisoquinolin-6-yl)pyridin-3-yl)-2-((1-(2,2,2-trifluoroethyl)piperidin-4-yl)oxy)benzonitrile] | – | – | > 1000 | 11 to 100 |
| CC(=O)N1CCC(Oc2ccc(-c3cc(-c4ccc5c(c4)CCNC5=O)c(N)nc3F)cc2C(F)(F)F)CC1 [I-199, 6-(5-(4-((1-acetylpiperidin-4-yl)oxy)-3-(trifluoromethyl)phenyl)-2-amino-6-fluoropyridin-3-yl)-3,4-dihydroisoquinolin-1(2H)-one] | – | – | > 1000 | 11 to 100 |
| CC(=O)N1CCN(c2ccc(-c3cc(-c4ccc5c(c4)CCNC5=O)c(N)nc3F)cc2C(F)(F)F)CC1 [I-200, 6-(5-(4-(4-acetylpiperazin-1-yl)-3-(trifluoromethyl)phenyl)-2-amino-6-fluoropyridin-3-yl)-3,4-dihydroisoquinolin-1(2H)-one] | – | – | > 1000 | 0.1 to 10 |
| Nc1nc(F)c(-c2ccc(OC3CCN(CC(F)(F)F)CC3)c(C(F)(F)F)c2)cc1-c1ccc2c(c1)CCNC2=O [I-201, 6-(2-amino-6-fluoro-5-(4-((1-(2,2,2-trifluoroethyl)piperidin-4-yl)oxy)-3-(trifluoromethyl)phenyl)pyridin-3-yl)-3,4-dihydroisoquinolin-1(2H)-one] | – | – | > 1000 | 101 to 1000 |
| Nc1nc(F)c(-c2ccc(N3CCN(CC(F)(F)F)CC3)c(C(F)(F)F)c2)cc1-c1ccc2c(c1)CCNC2=O [I-202, 6-(2-amino-6-fluoro-5-(4-(4-(2,2,2-trifluoroethyl)piperazin-1-yl)-3-(trifluoromethyl)phenyl)pyridin-3-yl)-3,4-dihydroisoquinolin-1(2H)-one] | – | – | > 1000 | 11 to 100 |
| Nc1nc(F)c(-c2ccc(OC3CCN(C(=O)C4CC4)CC3)cc2)cc1-c1ccc2c(c1)CCNC2=O [I-203, 6-(2-amino-5-(4-((1-(cyclopropanecarbonyl)piperidin-4-yl)oxy)phenyl)-6-fluoropyridin-3-yl)-3,4-dihydroisoquinolin-1(2H)-one] | – | – | > 1000 | 0.1 to 10 |
| Nc1nc(F)c(-c2ccc3c(c2)OCCCO3)cc1-c1ccc2c(c1)CCNC2=O [I-204, 6-(2-amino-5-(3,4-dihydro-2H-benzo[b][1,4]dioxepin-7-yl)-6-fluoropyridin-3-yl)-3,4-dihydroisoquinolin-1(2H)-one] | – | – | > 1000 | 0.1 to 10 |
| Nc1nc(F)c(-c2ccc3c(c2)OCCCO3)cc1-c1cc2c(cc1F)C(=O)NCC2 [I-205, 6-(2-amino-5-(3,4-dihydro-2H-benzo[b][1,4]dioxepin-7-yl)-6-fluoropyridin-3-yl)-7-fluoro-3,4-dihydroisoquinolin-1(2H)-one] | – | – | > 1000 | 0.1 to 10 |
| CN1CCCN(S(=O)(=O)c2ccc(-c3cc(-c4ccc5c(c4)CCNC5=O)c(N)nc3F)cc2)CC1 [I-206, 6-(2-amino-6-fluoro-5-(4-((4-methyl-1,4-diazepan-1-yl)sulfonyl)phenyl)pyridin-3-yl)-3,4-dihydroisoquinolin-1(2H)-one] | – | – | > 1000 | 0.1 to 10 |
| CN1CCN(S(=O)(=O)c2ccc(-c3cc(-c4ccc5c(c4)CCNC5=O)c(N)nc3F)cc2)CC1 [I-207, 6-(2-amino-6-fluoro-5-(4-((4-methylpiperazin-1-yl)sulfonyl)phenyl)pyridin-3-yl)-3,4-dihydroisoquinolin-1(2H)-one] | – | – | > 1000 | 0.1 to 10 |
| COCCN1CCC(OC)(c2ccc(-c3cc(-c4ccc5c(c4)CCNC5=O)c(N)nc3F)cc2)CC1 [I-208, 6-(2-amino-6-fluoro-5-(4-(4-methoxy-1-(2-methoxyethyl)piperidin-4-yl)phenyl)pyridin-3-yl)-3,4-dihydroisoquinolin-1(2H)-one] | – | – | > 1000 | 0.1 to 10 |
| CC(C)N1CCN(c2ccc(-c3cc(-c4cc5c(cc4F)C(=O)NCC5)c(N)nc3Cl)cc2)CC1 [I-209, 6-(2-amino-6-chloro-5-(4-(4-isopropylpiperazin-1-yl)phenyl)pyridin-3-yl)-7-fluoro-3,4-dihydroisoquinolin-1(2H)-one] | – | – | > 1000 | 0.1 to 10 |
| Nc1nc(F)c(-c2ccc(N3CCN(CC4CC4)CC3)cc2)cc1-c1ccc2c(c1)CCNC2=O [I-210, 6-(2-amino-5-(4-(4-(cyclopropylmethyl)piperazin-1-yl)phenyl)-6-fluoropyridin-3-yl)-3,4-dihydroisoquinolin-1(2H)-one] | – | – | 101 to 1000 | 0.1 to 10 |
| CCN1CCN(c2ccc(-c3cc(-c4cc5c(cc4F)C(=O)NCC5)c(N)nc3F)cc2)CC1 [I-211, 6-(2-amino-5-(4-(4-ethylpiperazin-1-yl)phenyl)-6-fluoropyridin-3-yl)-7-fluoro-3,4-dihydroisoquinolin-1(2H)-one] | – | – | > 1000 | 0.1 to 10 |
| COCCN1CCN(c2ccc(-c3cc(-c4cc5c(cc4F)C(=O)NCC5)c(N)nc3F)cc2)CC1 [I-212, 6-(2-amino-6-fluoro-5-(4-(4-(2-methoxyethyl)piperazin-1-yl)phenyl)pyridin-3-yl)-7-fluoro-3,4-dihydroisoquinolin-1(2H)-one] | – | – | > 1000 | 0.1 to 10 |
| Nc1nc(F)c(-c2ccc(N3CCN(CC4CC4)CC3)cc2)cc1-c1cc2c(cc1F)C(=O)NCC2 [I-213, 6-(2-amino-5-(4-(4-(cyclopropylmethyl)piperazin-1-yl)phenyl)-6-fluoropyridin-3-yl)-7-fluoro-3,4-dihydroisoquinolin-1(2H)-one] | – | – | > 1000 | 0.1 to 10 |
| COCCN1CCC2(CC1)OCc1cc(-c3cc(-c4ccc5c(c4)CCNC5=O)c(N)nc3F)ccc1O2 [I-214, 6-(2-amino-6-fluoro-5-(1′-(2-methoxyethyl)-4H-spiro[benzo[d][1,3]dioxine-2,4′-piperidin]-6-yl)pyridin-3-yl)-3,4-dihydroisoquinolin-1(2H)-one] | – | – | > 1000 | 0.1 to 10 |
| COCCN1CCC2(CC1)CC(=O)c1cc(-c3cc(-c4ccc5c(c4)CCNC5=O)c(N)nc3F)ccc1O2 [I-215, 6-(6-amino-2-fluoro-5-(1-oxo-1,2,3,4-tetrahydroisoquinolin-6-yl)pyridin-3-yl)-1′-(2-methoxyethyl)spiro[chromane-2,4′-piperidin]-4-one] | – | – | > 1000 | 0.1 to 10 |
